According to ChEMBL document CHEMBL1133022, “Predicting blood-brain barrier permeation from three-dimensional molecular structure” (J Med Chem, 2000):

Species: Mus musculus
Test: BBB penetration classification
Conditions: not given

Question: Which Permeability does the source give for `C[C@H](CN1c2ccccc2Sc2ccccc21)N(C)C` here?
Answer: The Permeability was “Permeable”.

Question: For `CCC(NC(=O)c1c(C)c(-c2ccccc2)nc2ccccc12)c1ccccc1` (stereo unspecified), which Permeability is on record?
Answer: Its Permeability is “Permeable”.

Question: How did the Permeability turn out when `CC(C)(C)c1ccc([C@@H](O)CCCN2CCC(C(O)(c3ccccc3)c3ccccc3)CC2)cc1` was run?
Answer: Its Permeability is “Impermeable”.

Question: For `O=C(Cc1ccc(Cl)c(Cl)c1)N1CCc2occc2[C@H]1CN1CC[C@H](O)C1`, which Permeability is on record?
Answer: Its Permeability is “Permeable”.

Question: With `O=C(Cc1ccc(Cl)c(Cl)c1)N1CCCC[C@H]1CN1CCCC1` as the compound, how does the Permeability read?
Answer: The Permeability was “Permeable”.

Question: For `O=C(Cc1ccc(Cl)c(Cl)c1)N1CCc2occc2[C@H]1CN1CC[C@@H](O)C1` (mixture of isomers), which Permeability is on record?
Answer: Its Permeability is “Permeable”.

Question: For `O=C(Cc1ccc(Cl)c(Cl)c1)N1CCc2occc2[C@@H]1CN1CC[C@H](O)C1` (racemic), which Permeability is on record?
Answer: The Permeability was “Permeable”.

Question: For `C[C@@H](CN1c2ccccc2Sc2ccccc21)N(C)C` [(S)-PROMETHAZINE], which Permeability is on record?
Answer: The Permeability was “Permeable”.

Question: For `COc1ccc(CCN2CCC(Nc3nc4ccccc4n3Cc3ccc(F)cc3)CC2)cc1` [ASTEMIZOLE], which Permeability is on record?
Answer: The Permeability was “Impermeable”.

Question: `Cn1c(=O)c2c(ncn2C)n(C)c1=O` [CAFFEINE] was tested. Which Permeability did it give?
Answer: The Permeability was “Permeable”.

Question: Which Permeability does the source give for `CN(C)CCCN1c2ccccc2Sc2ccc(Cl)cc21` [CHLORPROMAZINE] here?
Answer: Its Permeability is “Permeable”.

Question: Which Permeability does the source give for `CN/C(=N/CCSCc1nc[nH]c1C)NC#N` [CIMETIDINE] here?
Answer: Its Permeability is “Impermeable”.

Question: With `Clc1cccc(Cl)c1N=C1NCCN1` [CLONIDINE] as the compound, how does the Permeability read?
Answer: The Permeability was “Permeable”.

Question: With `CNCCCN1c2ccccc2CCc2ccccc21` [DESIPRAMINE] as the compound, how does the Permeability read?
Answer: Its Permeability is “Permeable”.

Question: For `O=c1[nH]c2ccccc2n1CCCN1CCC(n2c(=O)[nH]c3cc(Cl)ccc32)CC1` [DOMPERIDONE], which Permeability is on record?
Answer: Its Permeability is “Impermeable”.

Question: `NCCc1ccc(O)c(O)c1` [DOPAMINE] was tested. Which Permeability did it give?
Answer: The Permeability was “Impermeable”.

Question: With `CC(C)(C)c1ccc(C(=O)CCCN2CCC(OC(c3ccccc3)c3ccccc3)CC2)cc1` [EBASTINE] as the compound, how does the Permeability read?
Answer: Its Permeability is “Impermeable”.

Question: Which Permeability does the source give for `C[C@]12CC[C@@H]3c4ccc(O)cc4CC[C@H]3[C@@H]1CC[C@@H]2O` [ESTRADIOL] here?
Answer: Its Permeability is “Permeable”.

Question: Which Permeability does the source give for `O=C1CC[C@@]2(O)[C@H]3Cc4ccc(O)c5c4[C@@]2(CCN3CC2CC2)[C@H]1O5` [NALTREXONE] here?
Answer: The Permeability was “Permeable”.

Question: `CCn1cc(C(=O)O)c(=O)c2cc(F)c(N3CCNCC3)cc21` [NORFLOXACIN] was tested. Which Permeability did it give?
Answer: The Permeability was “Impermeable”.

Question: `OCCN1CCN(CCCN2c3ccccc3Sc3ccc(Cl)cc32)CC1` [PERPHENAZINE] was tested. Which Permeability did it give?
Answer: Its Permeability is “Permeable”.

Question: How did the Permeability turn out when `CC(C)(C)c1ccc([C@H](O)CCCN2CCC(C(O)(c3ccccc3)c3ccccc3)CC2)cc1` [R-TERFENADINE] was run?
Answer: The Permeability was “Impermeable”.

Question: For `CNC(=C[N+](=O)[O-])NCCSCc1ccc(CN(C)C)o1` [RANITIDINE], which Permeability is on record?
Answer: The Permeability was “Impermeable”.

Question: Which Permeability does the source give for `CCCC(C)C1(CC)C(=O)NC(=S)NC1=O` (stereo unspecified) [THIOPENTAL] here?
Answer: The Permeability was “Permeable”.

Question: For `CSc1ccc2c(c1)N(CCC1CCCCN1C)c1ccccc1S2` (stereo unspecified) [THIORIDAZINE], which Permeability is on record?
Answer: The Permeability was “Permeable”.

Same assay, conditions: in vivo

Question: For `N[C@@H](Cc1ccc(O)c(O)c1)C(=O)O` [LEVODOPA], which “BBB Impermeable” value is on record?
Answer: The value was “Impermeable”.
